Here are results for 18 compounds from ChEMBL document CHEMBL1201862, “PubChem BioAssay data set” (2004).

Experiment [1] in a line: growth inhibition of PfATP4-mutant resistant parasites – NITD609-resistant line, SYBR Green, dry powder, dose response (AID 1159571).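 Note: parasites synchronized at ring stage by sorbitol before testing.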 It is filed as functional, cell-based.
A short description of experiment [2]: P. falciparum Dd2 growth inhibitors, dose response, SYBR Green, cherry-picked samples (AID 1159567). It is filed as functional, cell-based.
A short description of experiment [3]: growth inhibition of yeast DHODH-expressing 3D7 parasites – SYBR Green, dry powder samples, dose response (AID 1159570).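 Note: parasite growth measured after 72 hours of compound exposure.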 It is filed as functional, cell-based.
A short description of experiment [4]: Dd2 malaria parasite growth inhibition potency – SYBR Green, dry powder samples, dose response (AID 1159566).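 Note: potency for growth inhibition with lower SYBR green DNA signal.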 In kind it is functional, cell-based.
The target in another experiment is Cytochrome P450 2C9 (Homo sapiens, UniProt P11712). The conditions noted are these: Potency.
Another experiment addresses Cytochrome P450 3A4 (Homo sapiens, UniProt P08684). The following applies: Potency.
Experiment [5] concerns the target T1, Polyadenylate-binding protein 1 (Homo sapiens, UniProt P11940). As to the kind of experiment: MLLE domain peptide-binding blockers, IC50 – biochemical, fluorescence polarization, FITC-PAM2 peptide, dose response (AID 602259). The conditions noted are these: read-out: IC50_Mean. It is filed as functional.
In a further experiment the target is Beta-galactosidase (Escherichia coli, UniProt Q8VNN2). As to the kind of experiment: detection-enzyme interference by beta-gal modulators – biochemical, E. coli enzyme, set 3, artefact control for CCR6 antagonist project, dose response (AID 504712). In kind it is functional.
Experiment [6] has as its target T1, Polyadenylate-binding protein 1. Kind of experiment: MLLE binding blockers, Cy5 peptide tracer – biochemical, fluorescence polarization, Cy5-PAM2 peptide, secondary, miRNA deadenylation inhibitor project, dose response (AID 602260). In kind it is functional. The conditions noted are these: read-out: IC50_Mean.
Experiment [7] deals with T2, Voltage-gated N-type calcium channel alpha-1B subunit/Amyloid beta A4 precursor protein-binding family A member 1 (Homo sapiens, UniProt Q00975+Q02410). It is filed as protein assay.
In experiment [8] the target is T2, Voltage-gated N-type calcium channel alpha-1B subunit/Amyloid beta A4 precursor protein-binding family A member 1. In kind it is protein assay. The source holds these as a separate data set.
A short description of experiment [9]: viability of uninfected HEp-2 cells – cell-based, HTS, cytotoxicity control for RSV inhibitor project, dose response (AID 2410). It is filed as functional. The following applies: human respiratory syncytial virus.
A further experiment has as its target T3, Estrogen receptor (Homo sapiens, UniProt P03372).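 Note: potency for inhibiting coactivator peptide recruitment to the receptor.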
T3 sequence (P03372 whole entry): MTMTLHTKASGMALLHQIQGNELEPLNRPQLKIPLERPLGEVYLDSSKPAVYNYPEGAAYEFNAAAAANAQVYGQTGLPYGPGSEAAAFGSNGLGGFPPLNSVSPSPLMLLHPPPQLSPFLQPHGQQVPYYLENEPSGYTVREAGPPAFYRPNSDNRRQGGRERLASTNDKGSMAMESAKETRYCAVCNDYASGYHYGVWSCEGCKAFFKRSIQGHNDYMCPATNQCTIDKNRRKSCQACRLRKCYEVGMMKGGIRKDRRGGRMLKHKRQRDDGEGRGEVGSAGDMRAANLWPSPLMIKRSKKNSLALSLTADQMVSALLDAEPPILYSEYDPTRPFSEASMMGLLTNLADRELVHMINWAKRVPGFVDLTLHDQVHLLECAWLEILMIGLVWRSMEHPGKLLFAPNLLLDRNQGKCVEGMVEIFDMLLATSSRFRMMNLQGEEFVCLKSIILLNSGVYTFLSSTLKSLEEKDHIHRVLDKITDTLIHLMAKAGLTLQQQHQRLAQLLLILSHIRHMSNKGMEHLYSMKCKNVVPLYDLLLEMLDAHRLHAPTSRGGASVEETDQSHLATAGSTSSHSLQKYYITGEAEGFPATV

Active and inactive are the calls of the source.

Cytochrome P450 2C9, sequence (P11712 whole entry): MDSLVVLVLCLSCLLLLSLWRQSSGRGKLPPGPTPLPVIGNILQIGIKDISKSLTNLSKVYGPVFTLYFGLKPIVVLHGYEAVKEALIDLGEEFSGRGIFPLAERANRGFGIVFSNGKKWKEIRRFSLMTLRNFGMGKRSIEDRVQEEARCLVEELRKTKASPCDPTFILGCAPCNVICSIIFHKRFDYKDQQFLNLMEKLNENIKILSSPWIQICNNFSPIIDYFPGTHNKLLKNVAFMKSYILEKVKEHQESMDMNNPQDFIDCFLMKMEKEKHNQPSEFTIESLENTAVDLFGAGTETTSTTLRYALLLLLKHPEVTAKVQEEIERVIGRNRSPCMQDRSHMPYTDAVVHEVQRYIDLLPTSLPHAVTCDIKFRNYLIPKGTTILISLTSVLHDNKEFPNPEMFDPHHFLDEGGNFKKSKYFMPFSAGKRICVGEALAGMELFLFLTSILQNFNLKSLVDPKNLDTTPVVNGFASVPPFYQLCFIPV
T2 sequence (Q00975 whole entry): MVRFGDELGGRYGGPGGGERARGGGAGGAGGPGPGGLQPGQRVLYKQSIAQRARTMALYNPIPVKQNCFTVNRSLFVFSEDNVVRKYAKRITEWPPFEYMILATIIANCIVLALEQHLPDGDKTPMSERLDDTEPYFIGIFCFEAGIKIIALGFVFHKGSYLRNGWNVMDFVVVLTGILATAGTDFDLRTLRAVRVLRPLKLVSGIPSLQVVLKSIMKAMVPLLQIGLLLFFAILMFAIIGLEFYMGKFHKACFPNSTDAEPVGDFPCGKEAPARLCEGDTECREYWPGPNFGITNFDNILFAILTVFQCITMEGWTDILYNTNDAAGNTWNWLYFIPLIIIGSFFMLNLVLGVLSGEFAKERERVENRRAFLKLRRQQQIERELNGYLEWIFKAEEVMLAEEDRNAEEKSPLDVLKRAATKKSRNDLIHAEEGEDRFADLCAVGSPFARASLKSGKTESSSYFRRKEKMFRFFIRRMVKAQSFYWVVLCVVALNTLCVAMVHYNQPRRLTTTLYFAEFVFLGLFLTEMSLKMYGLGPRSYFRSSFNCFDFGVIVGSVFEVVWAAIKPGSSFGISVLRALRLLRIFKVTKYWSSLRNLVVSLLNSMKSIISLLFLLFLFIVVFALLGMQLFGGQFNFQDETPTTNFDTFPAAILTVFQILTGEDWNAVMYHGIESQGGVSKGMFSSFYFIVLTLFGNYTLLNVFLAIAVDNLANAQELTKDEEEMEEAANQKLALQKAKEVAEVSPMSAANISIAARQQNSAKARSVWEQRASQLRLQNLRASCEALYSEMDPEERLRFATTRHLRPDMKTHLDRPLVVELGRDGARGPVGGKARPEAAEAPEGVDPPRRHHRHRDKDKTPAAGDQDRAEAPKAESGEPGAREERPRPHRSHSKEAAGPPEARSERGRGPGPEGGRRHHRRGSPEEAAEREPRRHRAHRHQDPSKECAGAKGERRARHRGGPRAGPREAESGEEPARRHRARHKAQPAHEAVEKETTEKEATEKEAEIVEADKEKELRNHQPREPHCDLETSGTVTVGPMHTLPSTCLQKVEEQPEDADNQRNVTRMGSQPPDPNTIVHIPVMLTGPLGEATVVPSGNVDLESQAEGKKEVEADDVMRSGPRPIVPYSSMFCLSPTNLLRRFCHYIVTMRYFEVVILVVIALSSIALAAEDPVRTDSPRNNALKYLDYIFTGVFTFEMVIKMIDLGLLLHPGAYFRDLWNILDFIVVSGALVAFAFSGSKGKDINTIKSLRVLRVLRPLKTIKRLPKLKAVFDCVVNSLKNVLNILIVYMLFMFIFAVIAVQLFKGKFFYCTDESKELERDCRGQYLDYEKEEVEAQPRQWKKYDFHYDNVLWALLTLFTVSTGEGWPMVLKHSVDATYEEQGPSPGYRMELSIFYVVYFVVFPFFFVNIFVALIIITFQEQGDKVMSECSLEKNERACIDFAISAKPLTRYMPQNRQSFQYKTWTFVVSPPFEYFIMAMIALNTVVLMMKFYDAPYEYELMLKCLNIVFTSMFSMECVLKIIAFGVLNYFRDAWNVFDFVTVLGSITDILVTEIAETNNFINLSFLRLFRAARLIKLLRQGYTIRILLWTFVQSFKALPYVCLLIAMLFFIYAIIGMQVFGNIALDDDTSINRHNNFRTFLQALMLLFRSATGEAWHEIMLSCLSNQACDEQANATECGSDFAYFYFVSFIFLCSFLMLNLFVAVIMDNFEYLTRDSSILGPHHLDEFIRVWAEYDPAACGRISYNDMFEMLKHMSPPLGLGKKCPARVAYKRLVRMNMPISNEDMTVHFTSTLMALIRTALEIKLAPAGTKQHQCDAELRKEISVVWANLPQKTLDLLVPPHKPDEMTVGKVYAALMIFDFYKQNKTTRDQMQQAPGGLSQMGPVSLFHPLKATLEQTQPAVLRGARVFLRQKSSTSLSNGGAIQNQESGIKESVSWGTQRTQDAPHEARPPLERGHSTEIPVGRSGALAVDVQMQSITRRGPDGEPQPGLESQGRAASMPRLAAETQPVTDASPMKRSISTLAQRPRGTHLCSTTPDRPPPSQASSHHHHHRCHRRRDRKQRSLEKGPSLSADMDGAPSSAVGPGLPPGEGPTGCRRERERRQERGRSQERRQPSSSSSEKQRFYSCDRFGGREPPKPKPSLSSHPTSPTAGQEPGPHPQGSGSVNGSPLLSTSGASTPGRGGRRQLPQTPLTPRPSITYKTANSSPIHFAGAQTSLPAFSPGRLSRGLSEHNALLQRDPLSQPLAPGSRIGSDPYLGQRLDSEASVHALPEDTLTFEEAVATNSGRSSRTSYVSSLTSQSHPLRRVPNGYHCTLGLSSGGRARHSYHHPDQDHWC
T2 sequence (Q02410 whole entry): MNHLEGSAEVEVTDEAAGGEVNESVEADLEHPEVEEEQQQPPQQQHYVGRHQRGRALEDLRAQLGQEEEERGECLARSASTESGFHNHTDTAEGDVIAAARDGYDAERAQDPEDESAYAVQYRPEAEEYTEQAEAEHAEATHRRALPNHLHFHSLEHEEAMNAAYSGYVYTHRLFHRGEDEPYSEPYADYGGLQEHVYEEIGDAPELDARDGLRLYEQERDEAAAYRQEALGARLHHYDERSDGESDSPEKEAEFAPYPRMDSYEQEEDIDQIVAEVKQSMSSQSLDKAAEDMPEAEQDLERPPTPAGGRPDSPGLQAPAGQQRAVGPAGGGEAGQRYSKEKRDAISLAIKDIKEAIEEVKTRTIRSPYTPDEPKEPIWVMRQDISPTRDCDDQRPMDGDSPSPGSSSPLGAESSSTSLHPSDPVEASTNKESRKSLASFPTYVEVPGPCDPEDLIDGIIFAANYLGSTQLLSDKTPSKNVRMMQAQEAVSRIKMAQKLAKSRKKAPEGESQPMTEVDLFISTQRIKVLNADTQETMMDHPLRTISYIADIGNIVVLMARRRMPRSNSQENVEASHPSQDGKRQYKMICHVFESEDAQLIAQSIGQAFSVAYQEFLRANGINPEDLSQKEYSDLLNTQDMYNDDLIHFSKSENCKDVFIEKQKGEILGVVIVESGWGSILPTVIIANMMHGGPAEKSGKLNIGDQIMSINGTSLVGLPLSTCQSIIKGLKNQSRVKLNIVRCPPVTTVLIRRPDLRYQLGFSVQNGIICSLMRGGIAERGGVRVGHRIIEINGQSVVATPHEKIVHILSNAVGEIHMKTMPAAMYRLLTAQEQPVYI
Beta-galactosidase, sequence (Q8VNN2 whole entry): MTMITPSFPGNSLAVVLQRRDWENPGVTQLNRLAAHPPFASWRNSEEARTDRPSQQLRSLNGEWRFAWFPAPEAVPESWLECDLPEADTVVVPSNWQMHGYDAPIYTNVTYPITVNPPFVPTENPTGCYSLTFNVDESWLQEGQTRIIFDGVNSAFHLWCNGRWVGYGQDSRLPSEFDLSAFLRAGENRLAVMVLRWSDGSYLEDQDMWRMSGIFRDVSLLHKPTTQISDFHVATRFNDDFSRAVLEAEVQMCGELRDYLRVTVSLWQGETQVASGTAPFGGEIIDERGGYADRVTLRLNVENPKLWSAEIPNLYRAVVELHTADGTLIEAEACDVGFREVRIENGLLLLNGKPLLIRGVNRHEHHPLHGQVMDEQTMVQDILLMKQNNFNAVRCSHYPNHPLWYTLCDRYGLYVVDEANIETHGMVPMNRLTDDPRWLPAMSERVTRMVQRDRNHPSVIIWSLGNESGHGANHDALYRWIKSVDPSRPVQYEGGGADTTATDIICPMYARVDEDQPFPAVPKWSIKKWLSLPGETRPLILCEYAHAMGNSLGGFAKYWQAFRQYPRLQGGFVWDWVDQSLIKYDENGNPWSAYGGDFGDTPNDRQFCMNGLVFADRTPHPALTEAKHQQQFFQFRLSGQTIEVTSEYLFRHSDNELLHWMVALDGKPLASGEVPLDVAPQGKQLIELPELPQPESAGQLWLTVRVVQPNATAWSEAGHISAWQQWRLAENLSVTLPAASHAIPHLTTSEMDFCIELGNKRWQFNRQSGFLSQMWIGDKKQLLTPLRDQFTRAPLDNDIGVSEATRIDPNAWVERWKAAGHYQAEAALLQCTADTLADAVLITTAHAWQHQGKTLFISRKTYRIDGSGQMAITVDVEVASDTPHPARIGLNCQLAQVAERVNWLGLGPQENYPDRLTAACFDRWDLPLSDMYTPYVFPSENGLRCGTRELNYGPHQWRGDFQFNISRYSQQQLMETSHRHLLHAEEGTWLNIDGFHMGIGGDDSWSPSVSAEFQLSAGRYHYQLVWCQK

With `CCCC(=O)N1CC2(C1)CN(S(=O)(=O)c1ccc(C)cc1)[C@@H](CO)c1[nH]c3cc(OC)ccc3c12`, the AC50 in [1] was 1.67 µM (active); in [2], 2.14 µM (active); in [3] it was 3.18 µM (active); in experiment [4], 1.65 µM (active).
On to `O=c1cc(-c2ccccc2O)oc2ccc3ccccc3c12`, for which the AC50 at Cytochrome P450 2C9 and at Cytochrome P450 3A4 was 31.6 µM (inconclusive) in each case.
Regarding `Cc1c(CC(=O)N2CCN(C(=O)C3COc4ccccc4O3)CC2)c(=O)oc2cc(O)cc(O)c12` (stereo unspecified), the IC50 in “cells” is 3.62 µM (active).
For the compound `CCCCn1c(N)c(C(=S)NC(=O)CC(C)(C)C)c(=O)n(C)c1=O`, the results for the IC50 (in experiment [5]; on Beta-galactosidase; in experiment [6]) were > 66 µM (inactive), > 66.6 µM (inactive) and > 66 µM (inactive), respectively.
Regarding `N#C/C(=C\c1ccc(OCCN2CCOCC2)cc1)C(=O)Nc1ccc(S(N)(=O)=O)cc1`, the IC50 in experiment [7] was 7.74 µM (active); in experiment [8], > 50 µM (inactive).
Regarding `O=S(=O)(c1ccccc1F)N1CCC(c2nc(O)c3nnn(Cc4ccc5c(c4)OCCO5)c3n2)CC1`, the IC50 in “cells” is 45.3 µM (active). For the same compound, the CC50 in experiment [9] is > 50 µM (active).
For `CCCOc1ccc(CN(CCC#N)C(=S)NC(=O)c2ccccc2)cc1`, at Beta-galactosidase, the IC50 was > 66.6 µM (inactive).
Turning to `CCOC(=O)N1CCN(C(=O)CCN2C(=O)/C(=C\c3cccc(OC)c3)SC2=S)CC1`, the IC50 in [7] was 28.4 µM (active); in [8] it was > 50 µM (inactive).
Consider `NCCC[C@@H](CC(=O)N[C@@H]1CCNC[C@H]1C(=O)N[C@H](CC(=O)N[C@@H](CCC(=O)O)CC(=O)O)Cc1c[nH]c2ccccc12)NC(=O)C[C@H](CO)NC(=O)[C@@H]1CNCC[C@H]1N`, for which the concentration at half-maximal activity (AC50) at Cytochrome P450 2C9 is 39.8 µM (inconclusive).
Still for that read-out and setting: the same measure for `COc1ccc(/C=C/C2=CC3(C)CC2(C)C(c2ccc(OC)cc2)CC3=O)cc1` (stereo unspecified): 7.94 µM (inconclusive).
On to `COc1cc(-c2nnc(SCc3c(F)cccc3Cl)o2)cc(OC)c1OC`, for which the IC50 in the experiment “cells” is 9.1 µM (active). In experiment [9], the CC50 is 29.9 µM (active).
`C[C@H](CO)N1C[C@H](C)[C@@H](CN(C)S(=O)(=O)c2ccc(C(F)(F)F)cc2)OCc2ccccc2-c2c(n(C)c3ccccc23)C1=O`: the AC50 was 0.885 µM (active) in experiment [1], 0.95 µM (active) in experiment [2], 0.777 µM (active) in experiment [3] and 0.599 µM (active) in experiment [4].
The like results for `COc1ccc(S(=O)(=O)Nc2cccc3c2O[C@H](CN(C)Cc2ccc(-c4ccccc4)cc2)[C@@H](C)CN([C@H](C)CO)C3=O)cc1` were, in that order, 0.696 µM (active), 0.955 µM (active), 1.02 µM (active) and 0.587 µM (active).
`CSc1ccc(S(=O)(=O)Nc2cccc(F)c2)cc1`: on Estrogen receptor, the IC50 was 23.7 µM (active).
`O=[N+]([O-])c1ccc(N/N=C/c2cccc(O)c2O)cc1`: the IC50 on Beta-galactosidase was > 66.6 µM (inactive).
Turning to `Cc1ccccc1Nc1nc(N)nc(CSc2nc3ccccc3c(=O)n2C)n1`, at Estrogen receptor, the IC50 is listed as > 50 µM (not active).
As for `Cc1ccc(-c2nc3cccnc3s2)cc1NS(=O)(=O)c1cccs1`, in the experiment “cells”, the IC50 was 8.63 µM (active). Moreover, the CC50 in experiment [9] is 20.4 µM (active).
Take `COC(=O)NC(/C(C(=O)OC)=C(\C)NCc1ccccc1)c1ccc2ccccc2c1` (stereo unspecified): the half-maximal activity concentration (AC50) at Cytochrome P450 2C9 was 1 µM (inconclusive); on Cytochrome P450 3A4, 3.98 µM (inconclusive).
